{"source": "paper PMC6742494", "about": "(ACS infectious diseases, 2016)", "key": {"M. smegmatis mc^2155 [1]": {"tested_on": "M. smegmatis mc^2155", "type": "cell-based, Mycobacterium smegmatis", "conditions": "pH 5.5"}, "Mtb H37Rv": {"tested_on": "Mtb H37Rv", "experiment": "microbe, parasite or virus in culture", "type": "cell-based, Mycobacterium tuberculosis", "conditions": "for MIC99: Mycobacterium tuberculosis, H37RV"}, "[2]": {"tested_on": "intracellular Mtb H37Rv in THP-1 cells", "type": "cell-based, Mycobacterium tuberculosis"}, "THP-1 cells": {"tested_on": "THP-1 cells", "experiment": "cells", "type": "cell-based", "conditions": "Homo sapiens, THP-1, 18 h, read-out: IC50 THP-1"}, "[3]": {"tested_on": "normal human foreskin fibroblast (HFF) cells", "experiment": "cells", "type": "cell-based", "conditions": "48 h, read-out: IC50 HFF"}, "Mtb T 21 (INH-sensitive)": {"tested_on": "Mtb T 21 (INH-sensitive)", "experiment": "microbe, parasite or virus in culture", "type": "cell-based", "conditions": "Mycobacterium tuberculosis"}, "[4]": {"tested_on": "Mtb Beijing 26 (RIF-sensitive)", "experiment": "microbe, parasite or virus in culture", "type": "cell-based", "conditions": "Mycobacterium tuberculosis"}, "[5]": {"tested_on": "Mtb Haarlem 23 (RIF-sensitive)", "experiment": "microbe, parasite or virus in culture", "type": "cell-based", "conditions": "Mycobacterium tuberculosis"}, "PBS-starved H37Rv": {"tested_on": "PBS-starved H37Rv", "type": "cell-based, Mycobacterium tuberculosis"}, "M. smegmatis mc^2155 [6]": {"tested_on": "M. smegmatis mc^2155", "experiment": "microbe, parasite or virus in culture", "type": "cell-based, Mycobacterium smegmatis", "conditions": "Mycolicibacterium smegmatis"}, "M. bovis BCG [7]": {"tested_on": "M. bovis BCG", "experiment": "microbe, parasite or virus in culture", "type": "cell-based", "conditions": "Mycobacterium tuberculosis variant bovis BCG"}, "M. smegmatis mc^2155 [8]": {"tested_on": "M. smegmatis mc^2155", "type": "cell-based, Mycobacterium smegmatis"}, "M. bovis BCG [9]": {"tested_on": "M. bovis BCG", "type": "cell-based, Mycobacterium bovis"}, "M. bovis BCG [10]": {"tested_on": "M. bovis BCG", "type": "cell-based, Mycobacterium bovis", "remark": "listed apart in the source"}, "Escherichia coli": {"tested_on": "Escherichia coli", "experiment": "microbe, parasite or virus in culture", "type": "cell-based"}, "Staphylococcus aureus": {"tested_on": "Staphylococcus aureus", "experiment": "microbe, parasite or virus in culture", "type": "cell-based"}, "Bacillus subtilis": {"tested_on": "Bacillus subtilis", "experiment": "microbe, parasite or virus in culture", "type": "cell-based"}, "Pseudomonas aeruginosa": {"tested_on": "Pseudomonas aeruginosa", "experiment": "microbe, parasite or virus in culture", "type": "cell-based"}, "[11]": {"conditions": "human"}, "[12]": {"conditions": "mouse; for Clint: microsomes"}, "in vitro [13]": {"experiment": "in vitro", "conditions": "human, microsomes"}, "in vitro [14]": {"experiment": "in vitro", "conditions": "mouse, microsomes"}, "in vitro [15]": {"experiment": "in vitro", "conditions": "human, hepatocytes"}, "M. bovis BCG [16]": {"tested_on": "M. bovis BCG", "type": "cell-based, Mycobacterium bovis", "remark": "listed apart in the source"}, "M. smegmatis mc^2155 [17]": {"tested_on": "M. smegmatis mc^2155", "conditions": "cited from earlier work"}}, "note": "Where “and” joins values, the source holds several entries; their conditions need not be identical. Identical values can stand only once. Like-named read-outs stand apart in the source and are kept apart here."}
{"smiles": "N#CC(C#N)=NNc1cccc(Cl)c1", "note": "[CCCP, carbonyl cyanide m-chlorophenylhydrazone]", "values": [{"measurement": "intrabacterial pH", "setting": "M. smegmatis mc^2155 [1]", "result": 5.5}]}
{"smiles": "FC(F)(F)Oc1ccc(Oc2ccc(CNCCNC3C4CC5CC(C4)CC3C5)cc2)cc1", "note": "(centres unmarked) [Compound 8, N^1-adamantan-2-yl-N^2-(4-(4-(trifluoro-methoxy)phenoxy)benzyl)ethane-1,2-diamine]", "values": [{"measurement": "MIC99", "setting": "Mtb H37Rv", "result": 2.5, "unit": "µM"}, {"measurement": "MIC99", "setting": "Mtb H37Rv; 120 h, read-out: MIC (MIC99)", "result": 1.2, "unit": "µg/mL"}, {"measurement": "reduction in bacterial cfu compared to untreated infected macrophages", "setting": "[2]", "result": "two-log reduction"}, {"measurement": "IC50", "setting": "THP-1 cells", "result": 4.4, "unit": "µg/mL"}, {"measurement": "IC50", "setting": "[3]", "result": 16.1, "unit": "µg/mL"}, {"measurement": "MIC", "setting": "Mtb T 21 (INH-sensitive)", "result": 0.58, "unit": "µg/mL"}, {"measurement": "MIC", "setting": "[4]", "result": 1.2, "unit": "µg/mL"}, {"measurement": "MIC", "setting": "[5]", "result": 1.2, "unit": "µg/mL"}, {"measurement": "reduction in viability of non-replicating Mtb", "setting": "PBS-starved H37Rv", "result": 3, "unit": "log"}, {"measurement": "sensitivity of non-replicating Mtb", "setting": "PBS-starved H37Rv", "result": "sensitive"}, {"measurement": "MIC", "setting": "M. smegmatis mc^2155 [6]", "result": "9.21 µg/mL and 20 µM"}, {"measurement": "MIC", "setting": "M. bovis BCG [7]", "result": "0.575 µg/mL and 1.25 µM"}, {"measurement": "effect on ΔΨ (red / green fluorescence ratio of DiOC2)", "setting": "M. smegmatis mc^2155 [8]", "result": "rapid depletion of ΔΨ"}, {"measurement": "intrabacterial pH", "setting": "M. smegmatis mc^2155 [1]", "result": "~7"}, {"measurement": "effect on ΔpH", "setting": "M. bovis BCG [9]", "result": "None of the concentrations tested reduced ΔpH"}, {"measurement": "effect on intracellular ATP", "setting": "M. bovis BCG [10]", "result": "reduces intracellular ATP in a dose-dependent manner"}, {"measurement": "IC50", "setting": "Escherichia coli", "result": 6.25, "unit": "µg/mL"}, {"measurement": "IC50", "setting": "Staphylococcus aureus", "result": 6.25, "unit": "µg/mL"}, {"measurement": "IC50", "setting": "Bacillus subtilis", "result": 6.25, "unit": "µg/mL"}, {"measurement": "IC50", "setting": "Pseudomonas aeruginosa", "result": 12.5, "unit": "µg/mL"}, {"measurement": "Predicted EH", "setting": "[11]", "result": 0.144}, {"measurement": "Predicted EH", "setting": "[12]", "result": 0.557}, {"measurement": "Clint", "setting": "[12]", "result": 113, "unit": "mL/min"}, {"measurement": "half-life", "setting": "in vitro [13]", "result": 231, "unit": "min"}, {"measurement": "half-life", "setting": "in vitro [14]", "result": 24.1, "unit": "min"}, {"measurement": "half-life", "setting": "in vitro [15]", "result": 190, "unit": "min"}]}
{"smiles": "CC[C@@H](CO)NCCN[C@@H](CC)CO", "note": "[EMB, ethambutol]", "values": [{"measurement": "MIC99", "setting": "Mtb H37Rv; 120 h, read-out: MIC (MIC99)", "result": 2, "unit": "µg/mL"}, {"measurement": "MIC", "setting": "Mtb T 21 (INH-sensitive)", "result": 0.5, "unit": "µg/mL"}, {"measurement": "MIC", "setting": "[4]", "result": 1, "unit": "µg/mL"}, {"measurement": "MIC", "setting": "[5]", "result": 1, "unit": "µg/mL"}, {"measurement": "sensitivity of non-replicating Mtb", "setting": "PBS-starved H37Rv", "result": "tolerant"}]}
{"smiles": "NNC(=O)c1ccncc1", "note": "[INH, isoniazid]", "values": [{"measurement": "1×MIC (in vitro MIC)", "setting": "Mtb H37Rv", "result": 0.05, "unit": "µg/mL"}, {"measurement": "IC50", "setting": "THP-1 cells", "result": 7000, "unit": "µg/mL"}, {"measurement": "MIC", "setting": "Mtb T 21 (INH-sensitive)", "result": 0.05, "unit": "µg/mL"}, {"measurement": "MIC", "setting": "[4]", "result": 0.025, "unit": "µg/mL"}, {"measurement": "MIC", "setting": "[5]", "result": 0.025, "unit": "µg/mL"}, {"measurement": "sensitivity of non-replicating Mtb", "setting": "PBS-starved H37Rv", "result": "tolerant"}]}
{"smiles": "Cc1ncc2n1-c1ccc(Cl)cc1C(c1ccccc1F)=NC2", "note": "[Midazolam, midazolam]", "values": [{"measurement": "Predicted EH", "setting": "[11]", "result": 0.920}, {"measurement": "Clint", "setting": "[11]; microsomes", "result": 239, "unit": "mL/min"}, {"measurement": "Predicted EH", "setting": "[12]", "result": 0.924}, {"measurement": "Clint", "setting": "[12]", "result": 1130, "unit": "mL/min"}, {"measurement": "half-life", "setting": "in vitro [13]", "result": 3.35, "unit": "min"}, {"measurement": "half-life", "setting": "in vitro [14]", "result": 2.41, "unit": "min"}]}
{"smiles": "CO[C@H]1/C=C/O[C@@]2(C)Oc3c(C)c(O)c4c(O)c(c(/C=N/N5CCN(C)CC5)c(O)c4c3C2=O)NC(=O)/C(C)=C\\C=C\\[C@H](C)[C@H](O)[C@@H](C)[C@@H](O)[C@@H](C)[C@H](OC(C)=O)[C@@H]1C", "note": "[RIF, rifampicin]", "values": [{"measurement": "1×MIC (in vitro MIC)", "setting": "Mtb H37Rv", "result": 0.025, "unit": "µg/mL"}, {"measurement": "IC50", "setting": "THP-1 cells", "result": 240, "unit": "µg/mL"}, {"measurement": "MIC", "setting": "Mtb T 21 (INH-sensitive)", "result": 0.0125, "unit": "µg/mL"}, {"measurement": "MIC", "setting": "[4]", "result": 0.0125, "unit": "µg/mL"}, {"measurement": "MIC", "setting": "[5]", "result": 0.0125, "unit": "µg/mL"}, {"measurement": "sensitivity of non-replicating Mtb", "setting": "PBS-starved H37Rv", "result": "tolerant"}]}
{"smiles": "CC(C)=CCC/C(C)=C/CNCCNC1C2CC3CC(C2)CC1C3", "note": "(centres unmarked) [SQ109]", "values": [{"measurement": "MIC (MIC99)", "setting": "Mtb H37Rv", "result": 1.6, "unit": "µg/mL"}, {"measurement": "MIC99", "setting": "Mtb H37Rv; 120 h, read-out: MIC (MIC99)", "result": 1.56, "unit": "µg/mL"}, {"measurement": "effect on ΔΨ", "setting": "M. bovis BCG [16]", "result": "rapidly deplete ΔΨ"}, {"measurement": "Predicted EH", "setting": "[11]", "result": 0.929}, {"measurement": "Predicted EH", "setting": "[12]", "result": 0.926}, {"measurement": "Clint", "setting": "[12]", "result": 1118, "unit": "mL/min"}, {"measurement": "effect on ΔΨ and ΔpH", "setting": "M. smegmatis mc^2155 [17]", "result": "rapidly depleted both the transmembrane potential (ΔΨ) and the chemical proton gradient (ΔpH)"}, {"measurement": "half-life", "setting": "in vitro [13]", "result": 2.97, "unit": "min"}, {"measurement": "half-life", "setting": "in vitro [14]", "result": 2.44, "unit": "min"}]}
